This assay concerns the target T1, α4β7 integrin interaction with MadCAM-1 (RPMI8866 cells) (Homo sapiens, UniProt P13612+P26010).
T1 construct: α4β7 integrin expressing cells; endogenous in cells; host or cells: RPMI8866 cells
T1 sequence (P13612 34-1032): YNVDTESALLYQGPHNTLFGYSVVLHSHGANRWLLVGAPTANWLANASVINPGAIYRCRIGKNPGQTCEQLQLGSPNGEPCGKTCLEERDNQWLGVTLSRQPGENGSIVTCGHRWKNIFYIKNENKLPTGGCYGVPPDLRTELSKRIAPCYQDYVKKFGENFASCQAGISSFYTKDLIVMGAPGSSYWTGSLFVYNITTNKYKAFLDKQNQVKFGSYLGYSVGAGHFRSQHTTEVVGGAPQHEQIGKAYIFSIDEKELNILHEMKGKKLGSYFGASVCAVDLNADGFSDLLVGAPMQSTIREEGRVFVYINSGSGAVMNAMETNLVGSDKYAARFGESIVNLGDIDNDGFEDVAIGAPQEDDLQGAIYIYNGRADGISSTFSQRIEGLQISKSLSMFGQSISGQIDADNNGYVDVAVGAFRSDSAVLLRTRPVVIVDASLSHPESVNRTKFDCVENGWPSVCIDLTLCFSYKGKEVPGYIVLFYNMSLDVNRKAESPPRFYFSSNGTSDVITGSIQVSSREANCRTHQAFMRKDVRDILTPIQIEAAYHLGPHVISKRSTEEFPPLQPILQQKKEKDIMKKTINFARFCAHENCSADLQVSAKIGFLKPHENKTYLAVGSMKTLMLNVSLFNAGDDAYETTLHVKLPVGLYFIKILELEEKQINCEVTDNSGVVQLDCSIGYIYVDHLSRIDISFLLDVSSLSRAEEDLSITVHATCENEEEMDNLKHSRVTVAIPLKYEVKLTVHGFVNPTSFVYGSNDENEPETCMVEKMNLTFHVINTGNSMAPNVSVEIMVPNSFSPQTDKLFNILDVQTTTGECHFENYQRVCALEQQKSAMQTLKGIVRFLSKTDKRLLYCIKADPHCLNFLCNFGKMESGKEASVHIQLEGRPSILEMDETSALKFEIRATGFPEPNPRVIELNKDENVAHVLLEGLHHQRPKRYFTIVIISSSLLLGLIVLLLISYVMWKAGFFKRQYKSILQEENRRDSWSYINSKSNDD
T1 sequence (P26010 20-798): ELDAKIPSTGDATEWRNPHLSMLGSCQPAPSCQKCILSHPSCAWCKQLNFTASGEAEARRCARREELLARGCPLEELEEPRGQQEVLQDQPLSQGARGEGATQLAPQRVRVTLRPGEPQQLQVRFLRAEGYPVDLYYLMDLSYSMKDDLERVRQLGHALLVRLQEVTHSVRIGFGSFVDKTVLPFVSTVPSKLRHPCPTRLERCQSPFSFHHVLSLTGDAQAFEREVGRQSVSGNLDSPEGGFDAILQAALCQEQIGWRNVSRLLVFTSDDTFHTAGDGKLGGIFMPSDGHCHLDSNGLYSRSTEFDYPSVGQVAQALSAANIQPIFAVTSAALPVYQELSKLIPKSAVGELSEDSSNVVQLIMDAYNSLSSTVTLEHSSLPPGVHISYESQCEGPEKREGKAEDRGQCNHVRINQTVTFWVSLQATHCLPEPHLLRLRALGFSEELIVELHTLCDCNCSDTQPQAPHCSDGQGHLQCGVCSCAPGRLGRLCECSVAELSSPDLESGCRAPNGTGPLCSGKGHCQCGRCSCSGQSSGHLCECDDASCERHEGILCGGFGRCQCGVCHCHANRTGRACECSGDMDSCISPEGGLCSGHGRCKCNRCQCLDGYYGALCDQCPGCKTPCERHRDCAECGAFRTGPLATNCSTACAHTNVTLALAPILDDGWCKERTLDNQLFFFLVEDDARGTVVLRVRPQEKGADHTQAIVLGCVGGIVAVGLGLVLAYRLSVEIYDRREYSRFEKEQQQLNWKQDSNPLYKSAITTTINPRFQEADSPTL
Kind of assay: α4β7 Integrin Cell Capture Assay. The format is cell-based. Particulars: capture of α4β7 integrin expressing RPMI8866 cells on recombinant MadCAM-1 extracellular domain-coated plate; 0.5 mM MnCl2. The gist of the method:
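RPMI8866 cells (0.5×10^6 cells/mL in DMEM + 0.5% FBS + 0.5 mM MnCl2) preincubated with compound 1 h at 37 °C, then allowed to adhere 30 min at 37 °C to plates coated with MAdCAM-1 extracellular domain (1.0 μg/mL). Bound cells fixed with 2% glutaraldehyde, Hoechst-stained, imaged and counted; EC50 from cell count versus concentration.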
In the case of `O=C(N[C@@H](Cc1ccc(-c2cc(F)c(F)cc2OC2CC2)c2c1CCCO2)C(=O)O)c1c(F)cccc1F` [Example 68, (S)-3-(8-(2-cyclopropoxy-4,5-difluorophenyl)chroman-5-yl)-2-(2,6-difluorobenzamido)propanoic acid], the EC50 amounted to 0.0565 µM.

Regarding `Cn1nc(-c2ccc(C[C@H](NC(=O)c3c(Cl)cccc3Cl)C(=O)O)c3c2OCCC3)c2ccccc21` [Example 69, (S)-2-(2,6-dichlorobenzamido)-3-(8-(1-methyl-1H-indazol-3-yl)chroman-5-yl)propanoic acid], the EC50 was 0.158 µM.

As to `COc1cc(F)c(F)cc1-c1ccc(C[C@H](NC(=O)c2c(Cl)cccc2Cl)C(=O)O)c2c1OCCC2` [Example 70, (S)-2-(2,6-dichlorobenzamido)-3-(8-(4,5-difluoro-2-methoxyphenyl)chroman-5-yl)propanoic acid], the EC50 amounted to 0.0305 µM.

On to `CCOCc1cc(OC)c(-c2ccc(C[C@H](NC(=O)c3c(F)cccc3F)C(=O)O)c3c2OCCC3)c(OC)c1` [Example 71, (S)-2-(2,6-difluorobenzamido)-3-(8-(4-(ethoxymethyl)-2,6-dimethoxyphenyl)chroman-5-yl)propanoic acid], for which the EC50 stood at 0.00918 µM.

With `N#Cc1ccc(-c2ccc(C[C@H](NC(=O)c3c(F)cccc3F)C(=O)O)c3c2OCCC3)c(Cl)c1` [Example 72, (S)-3-(8-(2-chloro-4-cyanophenyl)chroman-5-yl)-2-(2,6-difluorobenzamido)propanoic acid], the EC50 turned out to be 0.0533 µM.

In the case of `Cn1cc(-c2ccc(C[C@H](NC(=O)c3c(F)cccc3F)C(=O)O)c3c2OCCC3)c(=O)n(C)c1=O` [Example 73, (S)-2-(2,6-difluorobenzamido)-3-(8-(1,3-dimethyl-2,4-dioxo-1,2,3,4-tetrahydropyrimidin-5-yl)chroman-5-yl)propanoic acid], the EC50 worked out at 0.0173 µM.

On to `O=C(N[C@@H](Cc1ccc(-c2c(Cl)cc(F)cc2Cl)c2c1CCCO2)C(=O)O)c1c(F)cccc1F` [Example 74, (S)-3-(8-(2,6-dichloro-4-fluorophenyl)chroman-5-yl)-2-(2,6-difluorobenzamido)propanoic acid], for which the EC50 amounted to 0.0797 µM.

Regarding `O=C(N[C@@H](Cc1ccc(-c2c(Cl)cc(F)cc2Cl)c2c1CCCO2)C(=O)O)c1c(Cl)cccc1Cl` [Example 75, (S)-3-(8-(2,6-dichloro-4-fluorophenyl)chroman-5-yl)-2-(2,6-dichlorobenzamido)propanoic acid], the EC50 was determined as 0.0677 µM.

Consider `O=C(N[C@@H](Cc1ccc(-c2c(Cl)cc(F)cc2Cl)c2c1C1CC1CO2)C(=O)O)c1c(F)cccc1F` (stereo partly drawn) [Example 77, (2S)-3-(4-(2,6-dichloro-4-fluorophenyl)-1,1a,2,7b-tetrahydrocyclopropa [c]chromen-7-yl)-2-(2,6-difluorobenzamido)propanoic acid], for which the EC50 is 0.0703 µM.

Regarding `O=C(N[C@@H](Cc1ccc(-c2c(Cl)cc(F)cc2Cl)c2c1C1CC1CO2)C(=O)O)c1c(Cl)cccc1Cl` (stereo partly drawn) [Example 80, (2S)-3-(4-(2,6-dichloro-4-fluorophenyl)-1,1a,2,7b-tetrahydrocyclopropa[c]chromen-7-yl)-2-(2,6-dichlorobenzamido)propanoic acid], the EC50 stood at 0.0677 µM.

On to `O=C(N[C@@H](Cc1ccc(-c2c(Cl)cc(F)cc2Cl)c2c1CCCO2)C(=O)O)c1c(F)cc(N2CCOC[C@@H]2C(F)(F)F)cc1F` [Example 83, (S)-3-(8-(2,6-dichloro-4-fluorophenyl)chroman-5-yl)-2-(2,6-difluoro-4-((R)-3-(trifluoromethyl)morpholino)benzamido)propanoic acid], for which the EC50 was found to be 0.0355 µM.

With `O=C(N[C@@H](Cc1ccc(-c2c(Cl)cc(F)cc2Cl)c2c1CCCO2)C(=O)O)c1c(F)cc(N[C@H](c2ccccc2)C(F)(F)F)cc1F` [Example 84, (S)-3-(8-(2,6-dichloro-4-fluorophenyl)chroman-5-yl)-2-(2,6-difluoro-4-(((R)-2,2,2-trifluoro-1-phenylethyl)amino)benzamido)propanoic acid], the EC50 stood at 0.064 µM.

On to `Cn1cc(-c2ccc(C[C@H](NC(=O)c3c(F)cc(N[C@H](c4ccccc4)C(F)(F)F)cc3F)C(=O)O)c3c2OCCC3)c(=O)n(C)c1=O` [Example 85, (S)-2-(2,6-difluoro-4-(((R)-2,2,2-trifluoro-1-phenylethyl)amino)benzamido)-3-(8-(1,3-dimethyl-2,4-dioxo-1,2,3,4-tetrahydropyrimidin-5-yl)chroman-5-yl) propanoic acid], for which the EC50 stood at 0.00053 µM.

As for `O=C(N[C@@H](Cc1ccc(-c2ncccc2C(F)(F)F)c2c1CCCO2)C(=O)O)c1c(F)cc(N[C@H](c2ccccc2)C(F)(F)F)cc1F` [Example 86, (S)-2-(2,6-difluoro-4-(((R)-2,2,2-trifluoro-1-phenylethyl)amino)benzamido)-3-(8-(3-(trifluoromethyl)pyridin-2-yl)chroman-5-yl)propanoic acid], the EC50 was 0.00334 µM.

On to `N#Cc1cc(Cl)c(-c2ccc(C[C@H](NC(=O)c3c(F)cc(N[C@H](c4ccccc4)C(F)(F)F)cc3F)C(=O)O)c3c2OCCC3)c(Cl)c1` [Example 87, (S)-3-(8-(2,6-dichloro-4-cyanophenyl)chroman-5-yl)-2-(2,6-difluoro-4-(((R)-2,2,2-trifluoro-1-phenylethyl)amino)benzamido)propanoic acid], for which the EC50 amounted to 0.0128 µM.

Turning to `C[C@@H](Nc1cc(F)c(C(=O)N[C@@H](Cc2ccc(-c3cn(C)c(=O)n(C)c3=O)c3c2CCCO3)C(=O)O)c(F)c1)C(F)(F)F` [Example 88, (S)-2-(2,6-difluoro-4-(((R)-1,1,1-trifluoropropan-2-yl)amino)benzamido)-3-(8-(1,3-dimethyl-2,4-dioxo-1,2,3,4-tetrahydropyrimidin-5-yl)chroman-5-yl)propanoic acid], the EC50 came out at 0.00242 µM.

Turning to `C[C@@H](Nc1cc(F)c(C(=O)N[C@@H](Cc2ccc(-c3ncccc3C(F)(F)F)c3c2CCCO3)C(=O)O)c(F)c1)C(F)(F)F` [Example 89, (S)-2-(2,6-difluoro-4-(((R)-1,1,1-trifluoropropan-2-yl)amino)benzamido)-3-(8-(3-(trifluoromethyl)pyridin-2-yl)chroman-5-yl)propanoic acid], the EC50 turned out to be 0.00847 µM.

On to `O=C(N[C@@H](Cc1ccc(-c2cc(F)c(F)c3c2OCCC3)c2c1CCCO2)C(=O)O)c1c(Cl)cccc1Cl` [Example 90, (S)-2-(2,6-dichlorobenzamido)-3-(5′,6′-difluoro-[8,8′-bichroman]-5-yl)propanoic acid], for which the EC50 came out at 0.016 µM.

`C[C@@H](Nc1cc(F)c(C(=O)N[C@@H](Cc2ccc(-c3c(Cl)cc(C#N)cc3Cl)c3c2CCCO3)C(=O)O)c(F)c1)C(F)(F)F` [Example 91, (S)-3-(8-(2,6-dichloro-4-cyanophenyl)chroman-5-yl)-2-(2,6-difluoro-4-(((R)-1,1,1-trifluoropropan-2-yl)amino)benzamido)propanoic acid]: the EC50 amounted to 0.011 µM.

As for `CS(=O)(=O)Nc1cc(F)c(C(=O)N[C@@H](Cc2ccc(-c3c(Cl)cc(F)cc3Cl)c3c2CCCO3)C(=O)O)c(F)c1` [Example 92, (S)-3-(8-(2,6-dichloro-4-fluorophenyl)chroman-5-yl)-2-(2,6-difluoro-4-(methylsulfonamido)benzamido)propanoic acid], the EC50 is 0.00919 µM.

By EC50 is commonly meant the concentration needed to bring the measured effect to its halfway point.

The values are drawn from patent US20220226337A1 (Gilead Sciences, Inc., priority 2018, published 2022).
